Data reported in PubChem BioAssay AID256 (DTP/NCI, 2004).
Where “and” joins values, the source holds several entries; their conditions need not be identical. Equal values may be shown once. Toxic doses and inconclusive results are not listed. Rule for the calls: active = survival T/C of 150% or more; inactive = T/C below 125% in these data.

Tested on: CD2F1 mice, L1210 leukemia ip, survival T/C
Test: NCI In Vivo Anticancer Drug Screen. Data for tumor model L1210 Leukemia (intraperitoneal) in CD2F1 (CDF1) mice
Settings: higher = longer survival
Procedure, shortened: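 Antitumor effect is scored in animals hosting a serially transplanted tumor. Values compare compound-dosed animals against vehicle-only controls as a simple quotient.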

[1] = endpoint: mean survival time, dose: 100.0 mg/kg/injection, schedule: Q01DX001 (ip), vehicle: saline with Tween-80
[2] = endpoint: mean survival time, dose: 50.0 mg/kg/injection, schedule: Q01DX009 (ip), vehicle: saline with Tween-80
[3] = endpoint: mean survival time, dose: 100.0 mg/kg/injection, schedule: Q01DX009 (ip), vehicle: saline with Tween-80
[4] = endpoint: mean survival time, dose: 100.0 mg/kg/injection, schedule: Q04DX003 (ip), vehicle: saline with Tween-80
[5] = endpoint: mean survival time, dose: 200.0 mg/kg/injection, schedule: Q01DX009 (ip), vehicle: saline with Tween-80
[6] = endpoint: mean survival time, dose: 200.0 mg/kg/injection, schedule: Q04DX003 (ip), vehicle: saline with Tween-80
[7] = endpoint: mean survival time, dose: 100.0 mg/kg/injection, schedule: Q04DX002 (ip), vehicle: saline with Tween-80
[8] = endpoint: mean survival time, dose: 200.0 mg/kg/injection, schedule: Q04DX002 (ip), vehicle: saline with Tween-80
[9] = endpoint: mean survival time, dose: 400.0 mg/kg/injection, schedule: Q04DX002 (ip), vehicle: saline with Tween-80
[10] = endpoint: mean survival time, dose: 100.0 mg/kg/injection, schedule: Q01DX001 (ip), vehicle: saline
[11] = endpoint: mean survival time, dose: 200.0 mg/kg/injection, schedule: Q01DX001 (ip), vehicle: saline
[12] = endpoint: mean survival time, dose: 400.0 mg/kg/injection, schedule: Q01DX001 (ip), vehicle: saline
[13] = endpoint: mean survival time, dose: 100.0 mg/kg/injection, schedule: Q04DX003 (ip), vehicle: saline
[14] = endpoint: mean survival time, dose: 25.0 mg/kg/injection, schedule: Q04DX002 (ip), vehicle: saline with Tween-80
[15] = endpoint: mean survival time, dose: 400.0 mg/kg/injection, schedule: Q04DX003 (ip), vehicle: saline with Tween-80
[16] = endpoint: mean survival time, dose: 200.0 mg/kg/injection, schedule: Q01DX001 (ip), vehicle: saline with Tween-80
[17] = endpoint: mean survival time, dose: 400.0 mg/kg/injection, schedule: Q01DX001 (ip), vehicle: saline with Tween-80
[18] = endpoint: mean survival time, dose: 50.0 mg/kg/injection, schedule: Q04DX002 (ip), vehicle: saline with Tween-80

Measured: T/C

Nc1c(C(=O)O)cnn1CCO
inactive: endpoint: mean survival time, dose: 50.0 mg/kg/injection, schedule: Q04DX003 (ip), vehicle: water 94 % of control | endpoint: mean survival time, dose: 100.0 mg/kg/injection, schedule: Q04DX003 (ip), vehicle: water 100 % of control | endpoint: mean survival time, dose: 200.0 mg/kg/injection, schedule: Q04DX003 (ip), vehicle: water 100 % of control | endpoint: mean survival time, dose: 400.0 mg/kg/injection, schedule: Q04DX003 (ip), vehicle: water 97 % of control and 100 % of control | endpoint: mean survival time, dose: 700.0 mg/kg/injection, schedule: Q04DX003 (ip), vehicle: water 89 % of control

ClCc1ccc(Cl)cc1
inactive: endpoint: mean survival time, dose: 25.0 mg/kg/injection, schedule: Q01DX001 (ip), vehicle: saline with Tween-80 102 % of control | endpoint: mean survival time, dose: 50.0 mg/kg/injection, schedule: Q01DX001 (ip), vehicle: saline with Tween-80 106 % of control | [1] 92 % of control and 102 % of control

CCc1ccc(CC)c(CC)c1CC
inactive: [2] 98 % of control | [3] 95 % of control | [4] 98 % of control | [5] 92 % of control | [6] 104 % of control

O=C(O)C(Cl)(c1ccccc1)C(Cl)c1ccccc1 (stereo not drawn)
inactive: [2] 94 % of control | [3] 100 % of control | [4] 101 % of control | [5] 98 % of control | [6] 101 % of control

CCN(CC)c1ccc(N=Nc2c(C)nc(N)nc2-c2ccccc2)cc1
inactive: endpoint: mean survival time, dose: 150.0 mg/kg/injection, schedule: Q01DX001 (ip), vehicle: saline 97 % of control

Cc1cc(=O)c(C#N)c(-c2ccccc2)[nH]1
inactive: [7] 96 % of control | [8] 100 % of control | [9] 87 % of control

N#CC1(OC2OC(CO)C(O)C(O)C2O)C=CC(O)C1O (stereo not drawn)
inactive: [10] 101 % of control | [11] 101 % of control | [12] 98 % of control

CC([NH-])C[NH-].O=C(O)C(O)C(O)C(O)C(O)CO.O=C(O)C(O)C(O)C(O)C(O)CO.[Pt+2] (stereo not drawn)
inactive: endpoint: mean survival time, dose: 25.0 mg/kg/injection, schedule: Q04DX003 (ip), vehicle: saline 113 % of control | endpoint: mean survival time, dose: 50.0 mg/kg/injection, schedule: Q04DX003 (ip), vehicle: saline 120 % of control | [13] 123 % of control

CCCCCCCCCCCCCCCC[N+](C)(C)CC#CCCl
inactive: endpoint: mean survival time, dose: 6.25 mg/kg/injection, schedule: Q04DX002 (ip), vehicle: saline with Tween-80 96 % of control | endpoint: mean survival time, dose: 12.5 mg/kg/injection, schedule: Q04DX002 (ip), vehicle: saline with Tween-80 88 % of control | [14] 88 % of control

CSc1ccc(C2=CCCCC2)cc1
inactive: [13] 91 % of control | endpoint: mean survival time, dose: 200.0 mg/kg/injection, schedule: Q04DX003 (ip), vehicle: saline 91 % of control | endpoint: mean survival time, dose: 400.0 mg/kg/injection, schedule: Q04DX003 (ip), vehicle: saline 96 % of control

O=S(=O)(Nc1ccc(O)cc1)c1ccccc1
inactive: [3] 103 % of control | [4] 101 % of control | [5] 95 % of control | [6] 103 % of control | endpoint: mean survival time, dose: 400.0 mg/kg/injection, schedule: Q01DX009 (ip), vehicle: saline with Tween-80 95 % of control | [15] 107 % of control

O=C(O)c1cccnc1F
inactive: [4] 94 % of control | [6] 98 % of control | [15] 96 % of control

CCCCCCC(O)C[N+](=O)[O-] (stereo not drawn)
inactive: [2] 96 % of control | [5] 100 % of control

O=C(CCOP(=O)(N(CCCl)CCCl)N1CC1)OCc1ccccc1 (stereo not drawn)
inactive: endpoint: mean survival time, dose: 25.0 mg/kg/injection, schedule: Q01DX009 (ip), vehicle: Klucel (hydroxypropylcellulose) (HPC) 97 % of control | endpoint: mean survival time, dose: 50.0 mg/kg/injection, schedule: Q01DX009 (ip), vehicle: Klucel (hydroxypropylcellulose) (HPC) 94 % of control | endpoint: mean survival time, dose: 100.0 mg/kg/injection, schedule: Q01DX009 (ip), vehicle: Klucel (hydroxypropylcellulose) (HPC) 97 % of control | endpoint: mean survival time, dose: 125.0 mg/kg/injection, schedule: Q01DX001 (ip), vehicle: Klucel (hydroxypropylcellulose) (HPC) 98 % of control | endpoint: mean survival time, dose: 200.0 mg/kg/injection, schedule: Q01DX009 (ip), vehicle: Klucel (hydroxypropylcellulose) (HPC) 97 % of control | endpoint: mean survival time, dose: 250.0 mg/kg/injection, schedule: Q01DX001 (ip), vehicle: Klucel (hydroxypropylcellulose) (HPC) 107 % of control | endpoint: mean survival time, dose: 400.0 mg/kg/injection, schedule: Q01DX009 (ip), vehicle: Klucel (hydroxypropylcellulose) (HPC) 107 % of control | endpoint: mean survival time, dose: 500.0 mg/kg/injection, schedule: Q01DX001 (ip), vehicle: Klucel (hydroxypropylcellulose) (HPC) 103 % of control | endpoint: mean survival time, dose: 1000.0 mg/kg/injection, schedule: Q01DX001 (ip), vehicle: Klucel (hydroxypropylcellulose) (HPC) 95 % of control

Nc1ccccc1SSc1ccccc1N
inactive: [4] 98 % of control | [6] 90 % of control

CS(=O)(=O)OCCCN(CCCOS(C)(=O)=O)c1ccc(C=Nc2ccc(-c3csc(COc4ccc(Cl)cc4Cl)n3)cc2)cc1
inactive: [1] 86 % of control | [3] 93 % of control | [16] 86 % of control | [17] 89 % of control

OCC(O)C(O)C(O)C(O)/C=N/O (stereo not drawn)
inactive: [2] 97 % of control | [3] 97 % of control | [5] 104 % of control

CN(C)c1ccc(C(=O)OOOOC(c2ccc(N(C)C)cc2)(c2ccc(N(C)C)cc2)c2ccc(N(C)C)cc2)cc1
inactive: endpoint: mean survival time, dose: 50.0 mg/kg/injection, schedule: Q01DX001 (ip), vehicle: saline 95 % of control | [10] 95 % of control | [11] 107 % of control | [12] 89 % of control

COc1cc2c(cc1OC)C13CCN4CC5=CCOC6CC(=O)N2C1C6C5CC43 (stereo not drawn) (tested in a mixture with another compound)
inactive: [1] 110 % of control | endpoint: mean survival time, dose: 100.0 mg/kg/injection, schedule: Q01DX009 (ip), vehicle: saline 93 % of control

CC#CCOCC(O)CCl (stereo not drawn)
inactive: endpoint: median survival time, dose: 50.0 mg/kg/injection, schedule: Q01DX005 (ip), vehicle: saline 97 % of control | endpoint: median survival time, dose: 50.0 mg/kg/injection, schedule: Q01DX005 (ip), vehicle: suspension in saline 104 % of control | endpoint: median survival time, dose: 100.0 mg/kg/injection, schedule: Q01DX005 (ip), vehicle: saline 94 % of control | endpoint: median survival time, dose: 100.0 mg/kg/injection, schedule: Q01DX005 (ip), vehicle: suspension in saline 101 % of control | endpoint: median survival time, dose: 200.0 mg/kg/injection, schedule: Q01DX005 (ip), vehicle: saline 97 % of control | endpoint: median survival time, dose: 200.0 mg/kg/injection, schedule: Q01DX005 (ip), vehicle: suspension in saline 96 % of control | endpoint: median survival time, dose: 400.0 mg/kg/injection, schedule: Q01DX005 (ip), vehicle: saline 117 % of control

COc1ccc(NC(=O)Nc2ccccc2C)c(OC)c1
inactive: [14] 88 % of control | [18] 88 % of control | [8] 90 % of control | [9] 90 % of control

CCc1cc(/C=C2\C(=O)C=Cc3ccccc32)c(O)s1
inactive: [14] 101 % of control | [18] 96 % of control | [7] 96 % of control

CCOC(=O)c1c(C)[nH]oc1=O
inactive: [3] 96 % of control

FC(F)(F)c1cccc(NC2=NCCO2)c1
inactive: [1] 92 % of control | [16] 93 % of control | [17] 91 % of control

O=C(O)/C=C/C(=O)Nc1cccc2ccccc12
inactive: [2] 105 % of control | [3] 100 % of control | [4] 95 % of control | [5] 89 % of control | [6] 105 % of control

O=C1C(O)=Cc2coc(=O)c3ccc(-c4ccccc4)c1c23
inactive: [1] 91 % of control
